Experimental data: patent publication US4962109A, “Insecticidally and acaricidally active pyrimidine esters and intermediates therefor” (Imperial Chemical Industries PLC, priority 1985, dated 1990)

Legend:
Format in all cases: in vivo
[1] = test system: Tetranychus urticae (spider mites - adult); experiment: Contact test on spider mites - adult (TUa), French bean leaf, mortality; conditions: 72 h, 500 ppm, contact, 3 days, read-out: TUa grading of mortality
Protocol: (§1) The activity of the Product was determined using a variety of insect pests. The Product was used in the form of liquid preparations containing 500, 250 or 100 parts per million (ppm) by weight of the Product. The preparations were made by dissolving the Product in acetone and diluting the solutions with water containing 0.01% by weight of a wetting agent sold under the trade name "LISSAPOL" NX until the liquid preparations contained the required concentration of the Product. "Lissapol" is a Registered Trade Mark.
(§2) The test procedure adopted with regard to each pest was basically the same and comprised supporting a number of the pests on a medium which was usually a host plant or a foodstuff on which the pests feed, and treating either or both the pests and the medium with the preparations. The mortality of the pests was then assessed at periods usually varying from one to three days after the treatment.
(§3) The results of the tests are given in Table III for each of the Products, at the rate in parts per million given in the second column as a grading of mortality designated as A, B or C wherein A indicates 80-100% mortality or knockdown, B indicates 50-79% mortality or knockdown and C indicates less than 50% mortality or knockdown.

[2] = test system: Musca domestica (houseflies - adults); experiment: Knockdown test on houseflies - adults (MD/KD), Cotton wool/sugar; conditions: 500 ppm, 4 hours, read-out: MD/KD grading of knockdown
Protocol: as §1, §2
In the case of the species Musca domestica (housefly), additional tests to determine the knockdown effect of the compounds were performed. PG,163
as §3

[3] = test system: Spodoptera exigua (lesser army worm - larvae); experiment: Residual test on lesser army worm larvae (SP), Cotton leaf, mortality; conditions: 48 h, 500 ppm, residual, 2 days, read-out: SP grading of mortality
Protocol: as §1, §2, §3
(lesser army worm - larvae)

[4] = test system: Blattella germanica (cockroach nymphs); experiment: Contact test on cockroach nymphs (BG/C), Plastic pot, mortality; conditions: 48 h, 500 ppm, contact, 2 days, read-out: BG/C grading of mortality
Protocol: as §1, §2, §3
BG/C Blattella germanica

[5] = test system: Nephotettix cincticeps (green leaf hopper - nymphs); experiment: Contact test on green leaf hopper nymphs (NC), Rice plant, mortality; conditions: 48 h, 500 ppm, contact, 2 days, read-out: NC grading of mortality
Protocol: as §1, §2, §3
NC Nephotettix cincticeps

[6] = test system: Tetranychus urticae (spider mites - ova); experiment: Contact test on spider mites - ova (TUe), French bean leaf, mortality; conditions: 144 h, 500 ppm, contact, 6 days, read-out: TUe grading of mortality
Protocol: as §1, §2, §3

[7] = test system: Diabrotica balteata (rootworm larvae); experiment: Residual test on rootworm larvae (DB), Filter paper/maize seed, mortality; conditions: 48 h, 500 ppm, residual, 2 days, read-out: DB grading of mortality
Protocol: as §1, §2, §3

[8] = test system: Heliothis virescens (tobacco budworm - larvae); experiment: Residual test on tobacco budworm larvae (HV), Cotton leaf, mortality; conditions: 48 h, read-out: HV grading of mortality
Protocol: as §1, §2, §3
(tobacco budworm - larvae)

[9] = test system: Musca domestica (houseflies - adults); experiment: Contact test on houseflies - adults (MD), Cotton wool/sugar, mortality; conditions: 72 h, 500 ppm, contact, 3 days, read-out: MD grading of mortality
Protocol: as §1, §2, §3

Myzus persicae (aphids) = experiment: Contact test on aphids (MP), Chinese Cabbage leaf, mortality; conditions: 72 h, 500 ppm, contact, 3 days, read-out: MP grading of mortality
Protocol: as §1, §2, §3

Row | SMILES | mortality at 500 ppm [1] [%] | pest or weed control at 500 ppm [2] [%] | mortality at 500 ppm [3] [%] | mortality at 500 ppm [4] [%] | mortality at 500 ppm [5] [%] | mortality at 500 ppm [6] [%] | mortality at 500 ppm [7] [%] | mortality at 500 ppm [8] [%] | mortality at 500 ppm [9] [%] | mortality at 500 ppm (Myzus persicae (aphids)) [%]
1 | CCN(CC)Cc1c(F)c(F)c(COC(=O)C(c2cnc(C(C)(C)C)nc2)C(C)(C)C)c(F)c1F (racemic) [Compound 176] | 80 to 100 | 80 to 100 | 80 to 100 | < 50 | 80 to 100 | < 50 | < 50 | 80 to 100 | 80 to 100 | 80 to 100
2 | C=CCc1c(F)c(F)c(COC(=O)C(c2cnc(C(C)(C)C)nc2)C(C)(C)C)c(F)c1F (racemic) [Compound 5, 4-(prop-2-en-1-yl)-2,3,5,6-tetrafluorobenzyl (RS)-2-[2-(1,1-dimethylethyl)pyrimidin-5-yl]-3,3-dimethylbutanoate] | 80 to 100 | 50 to 79 | 80 to 100 | < 50 | 50 to 79 | < 50 | < 50 | 50 to 79 | < 50 | 80 to 100
3 | CN(C)c1ncc(C(C(=O)OCc2ccc(F)c(Oc3ccccc3)c2)C(C)(C)C)cn1 (racemic) [Compound 200, 4-fluoro-3-phenoxybenzyl (RS)-2-[2-(N,N-dimethylamino)pyrimidin-5-yl]-3,3-dimethylbutanoate] | 80 to 100 | 80 to 100 | 80 to 100 | < 50 | 80 to 100 | < 50 | < 50 | 80 to 100 | < 50 | 80 to 100
4 | CC(C)(C)c1ncc(C(C(=O)OCc2c(F)c(F)c(CC=CCl)c(F)c2F)C(C)(C)C)cn1 (racemic) [Compound 14, 4-(EZ-3-chloroprop-2-en-1-yl)-2,3,5,6-tetrafluorobenzyl (RS)-2-[(1,1-dimethylethyl)pyrimidin-5-yl)-3,3-dimethylbutanoate] | 80 to 100 | 50 to 79 | < 50 | < 50 | 80 to 100 | < 50 | < 50 | 80 to 100 | 80 to 100 | 80 to 100
5 | C[C@@H](OC(=O)[C@@H](c1cnc(C(C)(C)C)nc1)C(C)(C)C)c1cccc(Oc2ccccc2)n1 (racemic) [Compound 11, (RS)-1-(6-phenoxypyrid-2-yl)ethyl (RS)-2-[2-(1,1-dimethylethyl)pyrimidin-5-yl]-3,3-dimethylbutanoate] | 80 to 100 | 80 to 100 | 80 to 100 | < 50 | 80 to 100 | 80 to 100 | 80 to 100 | 80 to 100 | 80 to 100 | 80 to 100
6 | CC(C)(C)c1ncc(C(C(=O)OCc2c(F)c(F)c(CO)c(F)c2F)C(C)(C)C)cn1 (racemic) [Compound 164, 4-(hydroxymethyl)-2,3,5,6-tetrafluorobenzyl (RS)-2-[2-(1,1-dimethylethyl)pyrimidin-5-yl]-3,3-dimethylbutanoate] | 80 to 100 | 80 to 100 | 80 to 100 | < 50 | < 50 | < 50 | < 50 | 50 to 79 | < 50 | 50 to 79
7 | CC(C)(C)c1ncc(C(C(=O)OCc2c(F)c(F)c(CC3CC3(Cl)Cl)c(F)c2F)C(C)(C)C)cn1 (racemic) [Compound 216, 4-[(2,2-dichlorocyclopropyl)methyl]-2,3,5,6-tetrafluorobenzyl (RS)-2-[2-(1,1-dimethylethyl)pyrimidin-5-yl]-3,3-dimethylbutanoate] | 80 to 100 | < 50 | 50 to 79 | < 50 | 50 to 79 | < 50 | < 50 | < 50 | < 50 | < 50
8 | CC(C)(C)c1ncc(C(C(=O)OCc2ccc(F)c(Oc3ccccc3)c2)C(C)(C)C)cn1 (racemic) [Compound 25, 4-fluoro-3-phenoxybenzyl (RS)-2-[2-(1,1-dimethylethyl)pyrimidin-5-yl]-3,3-dimethylbutanoate] | 80 to 100 | 80 to 100 | 80 to 100 | < 50 | 80 to 100 | 80 to 100 | 50 to 79 | 80 to 100 | < 50 | 80 to 100
9 | CCOc1c(F)c(COC)c(F)c(F)c1COC(=O)C(c1cnc(C(C)(C)C)nc1)C(C)(C)C (racemic) [Compound 185, 2,3,5-trifluoro-6-ethoxy-4-(methoxymethyl)benzyl (RS)-2-[2-(1,1-dimethylethyl)pyrimidin-5-yl]-3,3-dimethylbutanoate] | 80 to 100 | 80 to 100 | 80 to 100 | < 50 | 80 to 100 | < 50 | < 50 | 80 to 100 | 50 to 79 | 80 to 100
10 | COCc1c(F)c(F)c(COC(=O)C(c2cnc(C(F)(F)F)nc2)C(C)(C)C)c(F)c1F (racemic) [Compound 41, 2,3,5,6-tetrafluoro-4-(methoxymethyl)benzyl (RS)-2-[2-(trifluoromethyl)pyrimidin-5-yl]-3,3-dimethylbutanoate] | 80 to 100 | 80 to 100 | 80 to 100 | 80 to 100 | 80 to 100 | < 50 | < 50 | 80 to 100 | 80 to 100 | 80 to 100
11 | CC(C)(C)OC(=O)COCc1c(F)c(F)c(COC(=O)C(c2cnc(C(C)(C)C)nc2)C(C)(C)C)c(F)c1F (racemic) [Compound 165, 4-[(1,1-dimethylethyl)oxycarbonylmethoxymethyl]-2,3,5,6-tetrafluorobenzyl (RS)-2-[2-(1,1-dimethylethyl]pyrimidin-5-yl]-3,3-dimethylbutanoate] | < 50 | < 50 | < 50 | < 50 | 50 to 79 | < 50 | < 50 | < 50 | < 50 | < 50
12 | CC(C)(C)c1ncc(C(C(=O)OCc2cccc(Oc3ccc(Cl)cc3)c2)C(C)(C)C)cn1 (racemic) [Compound 180, 3-(4-chlorophenoxy)benzyl (RS)-2-[2-(1,1-dimethylethyl)pyrimidin-5-yl]-3,3-dimethylbutanoate] | 80 to 100 | 80 to 100 | 80 to 100 | < 50 | 80 to 100 | < 50 | < 50 | 80 to 100 | 80 to 100 | 80 to 100
13 | CC(C)OCc1c(F)c(F)c(COC(=O)C(c2cnc(C(C)(C)C)nc2)C(C)(C)C)c(F)c1F (racemic) [Compound 189, 2,3,5,6-tetrafluoro-4-[(1-methyl)ethoxy]methylbenzyl (RS)-2-[2-(1,1-dimethylethyl)-pyrimidin-5-yl]-3,3dimethylbutanoate] | 80 to 100 | 50 to 79 | 80 to 100 | < 50 | 80 to 100 | < 50 | < 50 | < 50 | < 50 | 80 to 100
